From patent US10738070B2, “Mannose-derived antagonists of FimH useful for treating disease” (Fimbrion Therapeutics, Inc., priority 2016, dated 2020)

Each molecule was assayed against T1, FimH (Escherichia coli, UniProt Q1R2J4) (assay: Hemagglutination inhibition (HAI) assay with UTI89 bacteria and guinea pig red blood cells). Settings: concentration reducing bacterial agglutination of guinea pig red blood cells by greater than 90%; UTI89 bacteria.
T1 construct: endogenous in cells; host or cells: E. coli UTI89 bacteria
Format: cell-based
Procedure: “HAI or EC>90” is that concentration of the FimH inhibitor/antagonist which reduces the bacterial agglutination of guinea pig red blood cells by greater than 90%.
HAI Assay The hemagglutination inhibition (HAI) assay was performed with UTI89 bacteria and guinea pig red blood cells, as previously described (S. J. Hultgren, W. R. Schwan, A. J. Schaeffer, J. L. Duncan Infect. Immun. 1986, 54, 613-620). Compounds not listed were not tested.

**Q.** How did the “HAI titer EC>90” value turn out when `Cc1cc(-c2cccc3cnccc23)ccc1O[C@H]1O[C@H](CO)[C@@H](O)[C@H](O)[C@@H]1O` [Example 15, 5-[4′-(α-D-mannopyranosyloxy)-3′-methylphenyl]-isoquinoline] was run?
**A.** 0.062 µM

**Q.** `Cc1cc(Oc2cccc(C#N)c2)c([N+](=O)[O-])cc1O[C@H]1O[C@H](CO)[C@@H](O)[C@H](O)[C@@H]1O` [Example 1, 3-[4-(α-D-mannopyranosyloxy)-5-methyl-2-nitrophenoxy]benzonitrile] was tested. Which “HAI titer EC>90” value did it give?
**A.** 0.125 µM

**Q.** With `Cc1cc(-c2ccc3ccn(C(C)C)c(=O)c3c2)ccc1O[C@H]1O[C@H](CO)[C@@H](O)[C@H](O)[C@@H]1O` [Example 26, 2-isopropyl-7-[4′-(α-D-mannopyranosyloxy)-3′-methylphenyl]-1(2H)-isoquinolinone] as the molecule, how does the “HAI titer EC>90” value read?
**A.** 0.043 µM

**Q.** Which “HAI titer EC>90” value does the source give for `Cc1cc(Oc2ccccc2C#N)c([N+](=O)[O-])cc1O[C@H]1O[C@H](CO)[C@@H](O)[C@H](O)[C@@H]1O` [Example 35, 2-[4-(α-D-mannopyranosyloxy)-5-methyl-2-nitrophenoxy]benzonitrile] here?
**A.** 1 µM

**Q.** `Cc1cc(Oc2ccccc2[N+](=O)[O-])c([N+](=O)[O-])cc1O[C@H]1O[C@H](CO)[C@@H](O)[C@H](O)[C@@H]1O` [Example 29, 2-[4-(α-D-mannopyranosyloxy)-5-methyl-2-nitrophenoxy]nitrobenzene] was tested. Which “HAI titer EC>90” value did it give?
**A.** 1 µM

**Q.** With `Cc1cc(-c2ccc3[nH]nc(C)c3c2)ccc1O[C@H]1O[C@H](CO)[C@@H](O)[C@H](O)[C@@H]1O` [Example 12, 3-Methyl-5-[4′-(α-D-mannopyranosyloxy) 3′-methylphenyl]-1H-indazole] as the molecule, how does the “HAI titer EC>90” value read?
**A.** 0.062 µM

**Q.** How did the “HAI titer EC>90” value turn out when `Cc1cc(-c2cncc(C(=O)O)c2)ccc1O[C@H]1O[C@H](CO)[C@@H](O)[C@H](O)[C@@H]1O` [Example 24, 5-[4′-(α-D-mannopyranosyloxy)-3′-methylphenyl]-3-pyridinecarboxylic acid] was run?
**A.** 0.25 µM

**Q.** `Cc1cc(Oc2ccc(C#N)cc2)c([N+](=O)[O-])cc1O[C@H]1O[C@H](CO)[C@@H](O)[C@H](O)[C@@H]1O` [Example 32, 4-[4-(α-D-mannopyranosyloxy)-5-methyl-2-nitrophenoxy]benzonitrile] was tested. Which “HAI titer EC>90” value did it give?
**A.** 0.5 µM

**Q.** For `Cc1cc(-c2cncc(C(=O)NC(C)C)c2)ccc1O[C@H]1O[C@H](CO)[C@@H](O)[C@H](O)[C@@H]1O` [Example 9, 5-[4′-(α-D-mannopyranosyloxy)-3′-methylphenyl]-N-isopropyl-3-pyridinecarboxamide], which “HAI titer EC>90” value is on record?
**A.** 0.032 µM

**Q.** `CC(=O)Nc1ccccc1Oc1cc(C)c(O[C@H]2O[C@H](CO)[C@@H](O)[C@H](O)[C@@H]2O)cc1[N+](=O)[O-]` [Example 30, N-(2-[4-(α-D-mannopyranosyloxy)-5-methyl-2-nitrophenoxy]phenyl)acetamide] was tested. Which “HAI titer EC>90” value did it give?
**A.** 1.5 µM

**Q.** Which “HAI titer EC>90” value does the source give for `CC(=O)Nc1ccc(Oc2cc(C)c(O[C@H]3O[C@H](CO)[C@@H](O)[C@H](O)[C@@H]3O)cc2[N+](=O)[O-])cc1` [Example 33, N-(4-[4-(α-D-mannopyranosyloxy)-5-methyl-2-nitrophenoxy]phenyl)acetamide] here?
**A.** 0.25 µM

**Q.** For `CNC(=O)c1cc(C(=O)O)cc(-c2ccc(O[C@H]3O[C@H](CO)[C@@H](O)[C@H](O)[C@@H]3O)c(C)c2)c1` [Example 23, 4′-(α-D-mannopyranosyloxy)-3′-methyl-5-[(methylamino)carbonyl]-[1,1′biphenyl]-3-carboxylic acid], which “HAI titer EC>90” value is on record?
**A.** 0.032 µM

**Q.** For `Cc1cc(-c2cc3[nH]c(=O)[nH]c(=O)c3s2)ccc1O[C@H]1O[C@H](CO)[C@@H](O)[C@H](O)[C@@H]1O` [Example 25, 6-[4′-(α-D-mannopyranosyloxy)-3′-methylphenyl]-thieno[3,2-d]pyrimidine-2,4(1H,3H)-dione], which “HAI titer EC>90” value is on record?
**A.** 0.024 µM

**Q.** How did the “HAI titer EC>90” value turn out when `Cc1cc(Oc2ccc3cccnc3c2)c([N+](=O)[O-])cc1O[C@H]1O[C@H](CO)[C@@H](O)[C@H](O)[C@@H]1O` [Example 36, 7-[4-(α-D-mannopyranosyloxy)-5-methyl-2-nitrophenoxy]quinoline] was run?
**A.** 0.5 µM

**Q.** `Cc1cc(-c2cccc(C(=O)N3CCNCC3)c2)ccc1O[C@H]1O[C@H](CO)[C@@H](O)[C@H](O)[C@@H]1O` [Example 8, 3-methyl-3′-(piperazin-1-ylcarbonyl)biphenyl-4-yl α-D-mannopyranoside] was tested. Which “HAI titer EC>90” value did it give?
**A.** 0.25 µM

**Q.** How did the “HAI titer EC>90” value turn out when `CS(=O)(=O)c1ccc(-c2ccc(O[C@H]3O[C@H](CO)[C@@H](O)[C@H](O)[C@@H]3O)c(Cl)c2)cc1` [Example 37, 3-chloro-4′-(methylsulfonyl)biphenyl-4-yl α-D-mannopyranoside] was run?
**A.** 0.15 µM

**Q.** With `Cc1cc(-c2cccc3c(N)nccc23)ccc1O[C@H]1O[C@H](CO)[C@@H](O)[C@H](O)[C@@H]1O` [Example 17, 5-[4′-(α-D-mannopyranosyloxy)-3′-methylphenyl]-isoquinolin-1-amine] as the molecule, how does the “HAI titer EC>90” value read?
**A.** 0.062 µM

**Q.** For `Cc1cc(-c2ccc3c(c2)C(=O)N(C(C)C)CC3)ccc1O[C@H]1O[C@H](CO)[C@@H](O)[C@H](O)[C@@H]1O` [Example 27, 2-isopropyl-3,4-Dihydro-7-[4′-(α-D-mannopyranosyloxy)-3′-methylphenyl]-1(2H)-isoquinolinone], which “HAI titer EC>90” value is on record?
**A.** 0.032 µM

**Q.** `Cc1cc(-c2ccc3[nH]nc(N)c3c2)ccc1O[C@H]1O[C@H](CO)[C@@H](O)[C@H](O)[C@@H]1O` [Example 13, 5-[4′-(α-D-mannopyranosyloxy)-3′-methylphenyl]-1H-indazol-3-amine] was tested. Which “HAI titer EC>90” value did it give?
**A.** 0.125 µM

**Q.** For `CC(=O)Nc1cccc(Oc2cc(C)c(O[C@H]3O[C@H](CO)[C@@H](O)[C@H](O)[C@@H]3O)cc2[N+](=O)[O-])c1` [Example 31, N-(3-[4-(α-D-mannopyranosyloxy)-5-methyl-2-nitrophenoxy]phenyl)acetamide], which “HAI titer EC>90” value is on record?
**A.** 0.5 µM

**Q.** How did the “HAI titer EC>90” value turn out when `Cc1cc(-n2cc(-c3ccccc3N)nn2)ccc1O[C@H]1O[C@H](CO)[C@@H](O)[C@H](O)[C@@H]1O` [Example 28, 2-methyl-4-[4-(2-aminophenyl)-1H-1,2,3-triazol-1-yl]phenyl α-D-mannopyranoside] was run?
**A.** 0.15 µM

**Q.** With `CNC(=O)c1cc(C(=O)NCCCCCCNC(=O)CCCCC[N+]2=C(/C=C/C=C/C=C3/c4ccc5ccccc5c4C(C)(C)N3C)C(C)(C)c3ccc4ccccc4c32)cc(-c2ccc(OC3OC(CO)C(O)C(O)C3O)c(C)c2)c1` [Example 22, N^3-(Cyanine5.5)-4′-(α-D-mannopyranosyl)-N^5,3′-dimethyl-[1,1′biphenyl]-3,5-dicarboxamide chloride] as the molecule, how does the “HAI titer EC>90” value read?
**A.** 2 µM

**Q.** Which “HAI titer EC>90” value does the source give for `COC(=O)c1cncc(-c2ccc(O[C@H]3O[C@H](CO)[C@@H](O)[C@H](O)[C@@H]3O)c(C)c2)c1` [Example 11, 5-[4′-(α-D-mannopyranosyloxy)-3′-methylphenyl]-3-pyridinecarboxylic acid methyl ester] here?
**A.** 0.032 µM

**Q.** With `Cc1cc(-c2cccc(C(=O)N3CCOCC3)c2)ccc1O[C@H]1O[C@H](CO)[C@@H](O)[C@H](O)[C@@H]1O` [Example 7, 3-methyl-3′-(morpholin-4-ylcarbonyl)biphenyl-4-yl α-D-mannopyranoside] as the molecule, how does the “HAI titer EC>90” value read?
**A.** 0.25 µM

**Q.** How did the “HAI titer EC>90” value turn out when `Cc1cc(-n2cc(-c3ccccn3)nn2)ccc1O[C@H]1O[C@H](CO)[C@@H](O)[C@H](O)[C@@H]1O` [Example 3, 2-methyl-4-[4-(pyridin-2-yl)-1H-1,2,3-triazol-1-yl]phenyl α-D-mannopyranoside] was run?
**A.** 0.062 µM

**Q.** With `Cc1cc(-c2cccc(C(=O)NCCCCCCNC(=O)CCCCC[N+]3=C(/C=C/C=C/C=C4/c5ccc6ccccc6c5C(C)(C)N4C)C(C)(C)c4ccc5ccccc5c43)c2)ccc1OC1OC(CO)C(O)C(O)C1O.[Cl-]` [Example 10, N-(Cyanine5.5)-4′-(α-D-mannopyranosyl)-3′-methyl-[1,1′biphenyl]-3-carboxamide chloride] as the molecule, how does the “HAI titer EC>90” value read?
**A.** 16 µM

**Q.** For `Cc1cc(Oc2ccc3ccncc3c2)c([N+](=O)[O-])cc1O[C@H]1O[C@H](CO)[C@@H](O)[C@H](O)[C@@H]1O` [Example 34, 7-[4-(α-D-mannopyranosyloxy)-5-methyl-2-nitrophenoxy]isoquinoline], which “HAI titer EC>90” value is on record?
**A.** 0.125 µM

**Q.** Which “HAI titer EC>90” value does the source give for `Cc1cc(-c2ccnc(-c3ccnc(Cl)c3)c2)ccc1OC1OC(CO)C(O)C(O)C1O` [Example 6b, 4-[2′-(2″-chloropyrid-4″-yl)-pyrid-4′-yl]-2-methylphenyl α-D-mannopyranoside] here?
**A.** 0.062 µM

**Q.** How did the “HAI titer EC>90” value turn out when `Cc1cc(-c2cccc3c(=O)[nH]ccc23)ccc1O[C@H]1O[C@H](CO)[C@@H](O)[C@H](O)[C@@H]1O` [Example 16, 5-[4′-(α-D-mannopyranosyloxy)-3′-methylphenyl]-1(2H)-isoquinolinone] was run?
**A.** 0.125 µM

**Q.** With `Cc1cc(-c2ccnc(Cl)c2)ccc1OC1OC(CO)C(O)C(O)C1O` [Example 6a, 4-(2′-chloropyrid-4′-yl)-2-methylphenyl α-D-mannopyranoside] as the molecule, how does the “HAI titer EC>90” value read?
**A.** 0.062 µM

**Q.** `Cc1cc(-c2ccc3cc[nH]c(=O)c3c2)cc(C)c1OC1OC(CO)C(O)C(O)C1O` [Example 38, 7-[4′-(α-D-mannopyranosyloxy)-3′,5′-dimethylphenyl]-1(2H)-iso-quinolinone] was tested. Which “HAI titer EC>90” value did it give?
**A.** 0.266 µM

**Q.** With `Cc1cc(-n2cc(-c3cccc(C(=O)O)c3)nn2)ccc1O[C@H]1O[C@H](CO)[C@@H](O)[C@H](O)[C@@H]1O` [Example 5, 2-methyl-4-[4-(3-carboxyphenyl)-1H-1,2,3-triazol-1-yl]phenyl α-D-mannopyranoside] as the molecule, how does the “HAI titer EC>90” value read?
**A.** 0.062 µM

**Q.** `Cc1cc(-c2cccc(-c3nnn[nH]3)c2)ccc1O[C@H]1O[C@H](CO)[C@@H](O)[C@H](O)[C@@H]1O` [Example 18, 3-Methyl-3′-(2H-tetrazol-5-yl)[1,1′-biphenyl]-4-yl α-D-mannopyranoside] was tested. Which “HAI titer EC>90” value did it give?
**A.** 0.125 µM

**Q.** `CNC(=O)c1cccc(-c2ccc(O[C@H]3O[C@H](CO)[C@@H](O)[C@H](O)[C@@H]3O)c(C#N)c2)c1` [Example 39, 4′-(α-D-mannopyranosyloxy)-3′-cyano-N-methyl-1,1′biphenyl-3-carboxamide] was tested. Which “HAI titer EC>90” value did it give?
**A.** 0.188 µM
